We go through 20 compounds from publication PMC4012464, “Design, Synthesis and Biological Evaluation of Tasiamide Analogues as Tumor Inhibitors” (Marine Drugs, 2014).

Structures are written as SMILES. Where two headings read alike, the source gives them in different places. Non-standard residues stand in square brackets, D forms with d. Residues, ends and D or L forms follow the SMILES beside them. *: point of attachment. Pentanoyl(2S-OH,3S-Me) = CC[C@H](C)[C@H](O)C(=O)*; Tetrahydroisoquinolin(2-yl) = c1ccc2c(c1)CCN(*)C2; dNMeF = CN[C@H](Cc1ccccc1)C(=O)O; NMeQ = CN[C@@H](CCC(N)=O)C(=O)O; Tic = O=C(O)[C@@H]1Cc2ccccc2CN1; X1 = CN(C)[C@H](CCC(N)=O)C(=O)*; dNMeQ = CN[C@H](CCC(N)=O)C(=O)O; NMeA = CN[C@@H](C)C(=O)O; Pentanoyl = CCCCC(=O)*; NHBn = c1ccc(CN*)cc1; Glycolyl = O=C(CO)*; NHPh = c1ccc(N*)cc1; OBn = c1ccc(CO*)cc1

Data set [1] has as its system KB, human nasopharyngeal carcinoma cell line. Nature of the data set: cells. The following applies: growth inhibition after 72 h of drug exposure, SRB staining, A515, means ± standard deviation from three independent experiments, read-out: In vitro inhibitory activity IC50, KB. The data set is classed as cell-based. The method, then:
(§1) All of the prepared analogues (S1–S4, C1–C9, N1–N2, M1–M3) were tested for their in vitro anticancer activities against KB and A549 cell lines. Briefly, cells were seeded into 96-well plates and cultured overnight, treated with tested samples for 72 h. Then, the cells were fixed with 10% trichloroacetic acid (100 µL) and stained with sulforhodamine B (Sigma, St. Louis, MO, USA). The sulforhodamine B (100 µL) in the cells was dissolved in 10 mmol/L Tris-HCl (150 µL) and measured at 515 nm using a multiwell spectrophotometer (VERSAmax, Molecular Devices, Sunnyvale, CA, USA). The inhibition rate on cell proliferation was calculated for each well as (A515control cells − A515treated cells)/A515control cells × 100% (A515: optical density value at 515 nm). The average IC50 values were determined by the Logit method from at least three independent tests.

Data set [2] concerns A549, human non-small cell lung tumor cell line. Nature of the data set: cells. The data set is classed as cell-based. Conditions: growth inhibition after 72 h of drug exposure, SRB staining, A515, means ± standard deviation from three independent experiments, read-out: In vitro inhibitory activity IC50, A549. The method, then:
as §1

In data set [3] the test system is human colon carcinoma (LoVo) cell line. Conditions: natural product isolated from Symploca sp.; cited from earlier work. From the text:
(§2) Marine cyanobacteria are a well-known prolific source of novel bioactive compounds [1, 2, 3], most of which are linear or cyclic (depsi)peptides with distinctive structures. […] The first total synthesis of tasiamide was reported by our group in 2008.

For data set [4], the system named is human nasopharyngeal carcinoma (KB) cell line. Conditions: natural product isolated from Symploca sp.; cited from earlier work.
Description: as §2

As to `CC[C@H](C)[C@H](O)C(=O)N[C@@H](CC(C)C)C(=O)N(C)[C@@H](CCC(N)=O)C(=O)N[C@H](C(=O)NCC(=O)N(C)[C@H](Cc1ccccc1)C(=O)NCc1ccccc1)[C@@H](C)CC` [Compound C3, HO-Hmp-Leu-N-Me-Gln-Ile-Gly-N-Me-D-Phe-NH-Bn] ({Pentanoyl(2S-OH,3S-Me)}-L[NMeQ]IG[dNMeF]-NHBn), the half-maximal inhibitory concentration (IC50) was 2.08 ± 0.33 µM in data set [1] and 2.24 ± 0.44 µM in data set [2].

For `CC[C@H](C)[C@H](O)C(=O)N[C@@H](CC(C)C)C(=O)N(C)[C@@H](CCC(N)=O)C(=O)N[C@H](C(=O)NCC(=O)N(C)[C@H](Cc1ccccc1)C(=O)Nc1ccccc1)[C@@H](C)CC` [Compound C1, HO-Hmp-Leu-N-Me-Gln-Ile-Gly-N-Me-D-Phe-NH-Ph] ({Pentanoyl(2S-OH,3S-Me)}-L[NMeQ]IG[dNMeF]-NHPh), the values for the IC50 in data set [1] and in data set [2] were 3.21 ± 0.6 µM and 4.17 ± 0.51 µM, respectively.

As for `CC[C@H](C)[C@H](O)C(=O)N[C@@H](CC(C)C)C(=O)N(C)[C@@H](CCC(N)=O)C(=O)N[C@H](C(=O)NCC(=O)N(C)[C@H](Cc1ccccc1)C(=O)N1CCc2ccccc2C1)[C@@H](C)CC` [Compound C7, HO-Hmp-Leu-N-Me-Gln-Ile-Gly-N-Me-D-Phe-NH-TIQ] ({Pentanoyl(2S-OH,3S-Me)}-L[NMeQ]IG[dNMeF]-{Tetrahydroisoquinolin(2-yl)}), the figures for the concentration for half-maximal inhibition (IC50) in data set [1] and in data set [2] were 3.8 ± 0.46 µM and 3.67 ± 0.66 µM, respectively.

Turning to `CC[C@H](C)[C@H](O)C(=O)N[C@@H](CC(C)C)C(=O)N(C)[C@H](CCC(N)=O)C(=O)N[C@H](C(=O)NCC(=O)N(C)[C@H](Cc1ccccc1)C(=O)N1CCc2ccccc2C1)[C@@H](C)CC` [Compound C8, HO-Hmp-Leu-N-Me-D-Gln-Ile-Gly-N-Me-D-Phe-NH-TIQ] ({Pentanoyl(2S-OH,3S-Me)}-L[dNMeQ]IG[dNMeF]-{Tetrahydroisoquinolin(2-yl)}), the half-maximal inhibitory concentration (IC50) in data set [1] is 3.64 ± 0.55 µM; in data set [2], more than 50 µM.

On to `CC[C@H](C)[C@H](NC(=O)[C@@H](CCC(N)=O)N(C)C)C(=O)NCC(=O)N(C)[C@H](Cc1ccccc1)C(=O)N1CCC[C@H]1C(=O)OC` [Compound S1, N,N-Me2-D-Gln-Ile-Gly-N-Me-D-Phe-Pro-OMe] (X1-IG[dNMeF]P-OMe), for which the concentration for half-maximal inhibition (IC50) in data set [1] and in data set [2] was more than 50 µM in each case.

For `CC[C@H](C)[C@H](O)C(=O)N[C@@H](CC(C)C)C(=O)N(C)[C@H](CCC(N)=O)C(=O)N[C@H](C(=O)NCC(=O)N(C)[C@H](Cc1ccccc1)C(=O)Nc1ccccc1)[C@@H](C)CC` [Compound C2, HO-Hmp-Leu-N-Me-D-Gln-Ile-Gly-N-Me-D-Phe-NH-Ph] ({Pentanoyl(2S-OH,3S-Me)}-L[dNMeQ]IG[dNMeF]-NHPh), the results for the IC50 in data set [1] and in data set [2] were 8.26 ± 1.22 µM and more than 50 µM, respectively.

`CC[C@H](C)[C@H](O)C(=O)N[C@@H](CC(C)C)C(=O)N(C)[C@@H](C)C(=O)N[C@H](C(=O)NCC(=O)N(C)[C@H](Cc1ccccc1)C(=O)NCc1ccccc1)[C@@H](C)CC` [Compound C9, HO-Hmp-Leu-N-Me-Ala-Ile-Gly-N-Me-D-Phe-NH-Bn] ({Pentanoyl(2S-OH,3S-Me)}-L[NMeA]IG[dNMeF]-NHBn): the IC50 in data set [1] and in data set [2] was more than 50 µM throughout.

As for `COc1cc([C@@H]2c3cc4c(cc3[C@@H](O[C@@H]3O[C@@H]5CO[C@@H](C)O[C@H]5[C@H](O)[C@H]3O)[C@H]3COC(=O)[C@H]23)OCO4)cc(OC)c1O` [Etoposide, etoposide, reference compound], the values for the 50% inhibitory concentration (IC50) in data set [1] (Homo sapiens) and in data set [2] (Homo sapiens) were 0.85 ± 0.08 µM and 0.99 ± 0.09 µM, respectively.

Take `CC[C@H](C)[C@H](O)C(=O)N[C@@H](CC(C)C)C(=O)N(C)[C@@H](CCC(N)=O)C(=O)N[C@H](C(=O)NCC(=O)N(C)[C@H](Cc1ccccc1)C(=O)N1Cc2ccccc2C[C@H]1C(=O)OC)[C@@H](C)CC` [Compound C5, HO-Hmp-Leu-N-Me-Gln-Ile-Gly-N-Me-D-Phe-NH-MTC] ({Pentanoyl(2S-OH,3S-Me)}-L[NMeQ]IG[dNMeF][Tic]-OMe): the figures for the half-maximal inhibitory concentration (IC50) in data set [1] and in data set [2] were 2.45 ± 0.41 µM and 5.24 ± 1.12 µM, respectively.

Regarding `CC[C@H](C)[C@H](O)C(=O)N[C@@H](CC(C)C)C(=O)N(C)[C@H](CCC(N)=O)C(=O)N[C@H](C(=O)NCC(=O)OCc1ccccc1)[C@@H](C)CC` [Compound S4, HO-Hmp-Leu-N-Me-D-Gln-Ile-Gly-OBn] ({Pentanoyl(2S-OH,3S-Me)}-L[dNMeQ]IG-OBn), the half-inhibitory concentration (IC50) in data set [1] and in data set [2] was more than 50 µM in each case.

Consider `CC[C@H](C)[C@H](O)C(=O)N[C@@H](CC(C)C)C(=O)N(C)[C@H](CCC(N)=O)C(=O)N[C@H](C(=O)NCC(=O)N(C)[C@H](Cc1ccccc1)C(=O)N1CCC[C@H]1C(=O)OC)[C@@H](C)CC` [Compound T2, tasiamide] ({Pentanoyl(2S-OH,3S-Me)}-L[dNMeQ]IG[dNMeF]P-OMe), for which, in data set [3], the “Cytotoxicity IC50, LoVo” value was 3.47 µg/mL. Further, the “Cytotoxicity IC50, KB” value in data set [4] is 0.48 µg/mL. Moreover, the results for the concentration for half-maximal inhibition (IC50) in data set [1] and in data set [2] were 0.58 ± 0.07 µM and more than 50 µM, respectively.

Turning to `CC[C@H](C)[C@H](NC(=O)[C@@H](CCC(N)=O)N(C)C(=O)[C@H](CC(C)C)NC(=O)CO)C(=O)NCC(=O)N(C)[C@H](Cc1ccccc1)C(=O)NCc1ccccc1` [Compound N2, 2-Hydroxyacetyl-Leu-N-Me-D-Gln-Ile-Gly-N-Me-D-Phe-NH-Bn] (Glycolyl-L[dNMeQ]IG[dNMeF]-NHBn), the IC50 in data set [1] and in data set [2] was more than 50 µM each time.

`CC[C@H](C)[C@H](O)C(=O)N[C@@H](CC(C)C)C(=O)N(C)[C@H](CCC(N)=O)C(=O)N[C@H](C(=O)NCC(=O)N[C@H](Cc1ccccc1)C(=O)NCc1ccccc1)[C@@H](C)CC` [Compound M2, HO-Hmp-Leu-N-Me-D-Gln-Ile-Gly-D-Phe-NH-Bn] ({Pentanoyl(2S-OH,3S-Me)}-L[dNMeQ]IG[dF]-NHBn): the concentration for half-maximal inhibition (IC50) in data set [1] and in data set [2] was more than 50 µM in each case.

With `CC[C@H](C)[C@H](O)C(=O)N[C@@H](CC(C)C)C(=O)N(C)[C@H](CCC(N)=O)C(=O)N[C@H](C(=O)OCc1ccccc1)[C@@H](C)CC` [Compound S3, HO-Hmp-Leu-N-Me-D-Gln-Ile-OBn], the IC50 in data set [1] and in data set [2] was more than 50 µM throughout.

For the compound `CCCCC(=O)N[C@@H](CC(C)C)C(=O)N(C)[C@H](CCC(N)=O)C(=O)N[C@H](C(=O)NCC(=O)N(C)[C@H](Cc1ccccc1)C(=O)NCc1ccccc1)[C@@H](C)CC` [Compound N1, n-Pentanoyl-Leu-N-Me-D-Gln-Ile-Gly-N-Me-D-Phe-NH-Bn] (Pentanoyl-L[dNMeQ]IG[dNMeF]-NHBn), the concentration for half-maximal inhibition (IC50) in data set [1] and in data set [2] was more than 50 µM each time.

Consider `CC[C@H](C)[C@H](O)C(=O)N[C@@H](CC(C)C)C(=O)N(C)[C@H](CCC(N)=O)C(=O)N[C@H](C(=O)NCC(=O)N(C)[C@H](Cc1ccccc1)C(=O)NCc1ccccc1)[C@@H](C)CC` [Compound C4, HO-Hmp-Leu-N-Me-D-Gln-Ile-Gly-N-Me-D-Phe-NH-Bn] ({Pentanoyl(2S-OH,3S-Me)}-L[dNMeQ]IG[dNMeF]-NHBn), for which the half-maximal inhibitory concentration (IC50) in data set [1] was found to be 1.29 ± 0.31 µM; in data set [2], 8.48 ± 1.39 µM.

For the compound `CC[C@H](C)[C@H](O)C(=O)N[C@@H](CC(C)C)C(=O)N[C@H](CCC(N)=O)C(=O)N[C@H](C(=O)NCC(=O)N(C)[C@H](Cc1ccccc1)C(=O)NCc1ccccc1)[C@@H](C)CC` [Compound M1, HO-Hmp-Leu-D-Gln-Ile-Gly-N-Me-D-Phe-NH-Bn] ({Pentanoyl(2S-OH,3S-Me)}-L[dQ]IG[dNMeF]-NHBn), the IC50 in data set [1] and in data set [2] was more than 50 µM each time.

With `CC[C@H](C)[C@H](O)C(=O)N[C@@H](CC(C)C)C(=O)N[C@H](CCC(N)=O)C(=O)N[C@H](C(=O)NCC(=O)N[C@H](Cc1ccccc1)C(=O)NCc1ccccc1)[C@@H](C)CC` [Compound M3, HO-Hmp-Leu-D-Gln-Ile-Gly-D-Phe-NH-Bn] ({Pentanoyl(2S-OH,3S-Me)}-L[dQ]IG[dF]-NHBn), the half-maximal inhibitory concentration (IC50) in data set [1] and in data set [2] was more than 50 µM in each case.

`CC[C@H](C)[C@@H](C(=O)NCC(=O)N(C)[C@H](Cc1ccccc1)C(=O)N1CCC[C@H]1C(=O)OC)N(C)C` [Compound S2, N,N-Me2-Ile-Gly-N-Me-D-Phe-Pro-OMe]: the IC50 in data set [1] and in data set [2] was more than 50 µM in each case.

Turning to `CC[C@H](C)[C@H](O)C(=O)N[C@@H](CC(C)C)C(=O)N(C)[C@H](CCC(N)=O)C(=O)N[C@H](C(=O)NCC(=O)N(C)[C@H](Cc1ccccc1)C(=O)N1Cc2ccccc2C[C@H]1C(=O)OC)[C@@H](C)CC` [Compound C6, HO-Hmp-Leu-N-Me-D-Gln-Ile-Gly-N-Me-D-Phe-NH-MTC] ({Pentanoyl(2S-OH,3S-Me)}-L[dNMeQ]IG[dNMeF][Tic]-OMe), the IC50 in data set [1] was found to be 8.52 ± 1.41 µM; in data set [2] it was 12.9 ± 1.32 µM.
